# Data: US20170280722A1, “COMPOSITIONS AND METHODS FOR CONTROL OF SAND FLIES AND OTHER BLOOD SUCKING INSECTS” (GENESIS LABORATORIES, INC., priority 2010, published 2017)
# Assays:
# [1] = tested on: P. argentipes first instar larvae; test: Larval bioassay with feces of fipronil treated B. bengalensis; format: in vivo; settings: for Mean ± SEM survival (days) of P. argentipes larvae during exposure to treated feces D-1 / Mean ± SEM survival (days) of P. argentipes larvae during exposure to treated feces D-5 / Mean ± SEM survival (days) of P. argentipes larvae during exposure to treated feces D-10 / Mean ± SEM survival (days) of P. argentipes larvae during exposure to treated feces D-20: B. bengalensis; for Mean ± SEM survival (days) of P. argentipes larvae during exposure to treated feces D-1: feces 1 day post-treatment; for Mean ± SEM survival (days) of P. argentipes larvae during exposure to treated feces D-5: feces 5 days post-treatment; for Mean ± SEM survival (days) of P. argentipes larvae during exposure to treated feces D-10: feces 10 days post-treatment; for Mean ± SEM survival (days) of P. argentipes larvae during exposure to treated feces D-20: feces 20 days post-treatment
# Description: The B. bengalensis fipronil study was conducted in two portions. In the first of the two segments, three randomly selected B. bengalensis were offered a fipronil (250 ppm) treated diet at 25 g daily. One rat served as control and was fed an untreated diet. In the second portion of the study, the remaining animals were randomly divided into two groups of two. Two individuals in the first group were offered 25 g of 100 ppm fipronil-treated feed each and two rats in the second group were each offered 25 g of 50 ppm fipronil-treated diet. One rat served as control and was fed an untreated diet.
# Test animals were provided treated feed for two consecutive days. Diets were prepared by utilizing locally available poultry feed treated with technical grade fipronil to predetermined concentrations. Consumption was calculated daily, feed refilled to a predetermined level of 25 g, and feces cleared. At the end of the second day, treated feed was cleared, final consumption weighed, and feed replaced with untreated locally available poultry feed. Feces were collected, noted as day-1 post-treatment and properly stored for use in assays. Observation of test animals continued for twenty days post-treatment, with additional collection of feces for testing conducted 5, 10, and 20 days post-treatment. On days when fecal collection occurred, all newspaper/bedding was replaced at 0800 hours and feces collected at the end of the day for preservation. Collected feces were dried overnight at approximately 40° C., ground into a fine powder with a pestle and mortar and frozen at −20° C. until larval bioassays were initiated.
# Larval bioassay jars were prepared using 48 mm, 100 g round Dibbi jars (Pearlpet, Pearl Polymers LTD., New Delhi, India). Jars were prepared by burning three small holes into the bottom of the container with a soldering iron. A thin layer (approximately 5 mm) of plaster of Paris was cast on the bottom and wetted to ensure humidity and softening of the test diet. To simplify mortality counts, the plaster was quartered, and each quadrant numbered one through four, using an ultra fine black marker. The lids of the jars were punctured with 15-20 small holes using a heated 24-gauge hypodermic needle.
# Each bioassay jar was loaded with ten one to two day old first instar P. argentipes larvae. Approximately 5 mg treated feces were sprinkled evenly over the plaster. Larval bioassay samples were maintained in a controlled environment at approximately 24° C. with relative humidity maintained at approximately 80% through daily moistening of paper towels underneath the jars. Any observed mold or mites were removed during each day's observation. Each bioassay group included one control jar with larvae provided standard larval food consisting of rabbit feed, rabbit pellets, and dried chicken blood which were mixed, dried, composted, and crushed. Mortality counts of larvae were conducted every 24 hours post-exposure until 100% mortality or pupation was observed. Larvae were considered dead if no physical response was observed within 15 seconds of light stimulation with a blunt probe.
# [2] = tested on: adult sand flies (P. argentipes); test: Adult sand fly bioassay on cattle given oral fipronil; format: in vivo
# Description: The test substance was given to the cattle orally as a single application. The oral treatment was by hand. Because the oral treatment was delivered in capsule form the dosage was very precise.
# The four dose levels of fipronil for the treatment groups used in this study were as follows: 0.5, 1.0, 2.0 and 4.0 mg/kg. These were weighed with an analytical balance to the nearest 0.01 g and presented in gelatin capsules.
# A breeding colony of P. argentipes was established during 2009 and is situated in Patna. The colony contains an average of 10,000 sand flies. Adults and larvae are used routinely for studies and are maintained under controlled temperature and humidity conditions.
# Adult sand flies used in this study were transferred to a mud plastered hut built next to the cattle shed. This was to acclimate lab-ready sand flies to natural environmental conditions in which the study was to be conducted. The sand flies were kept in 0.4 m^3 cloth mesh enclosures.
# Adult sand fly bioassays were conducted on days 1, 3, 5, 7, 14, 21, and 28 after oral administration of fipronil. […] Sand flies were counted and placed in a sand fly feeding capsule (10 cm diameter×2 cm deep). […]
# Two sand fly feeding capsules were used per cow. […] Sand flies were allowed to feed for 60 minutes and were monitored closely throughout the feeding period. […]
smiles,measurement,setting,value
N#Cc1nn(-c2c(Cl)cc(C(F)(F)F)cc2Cl)c(N)c1[S+]([O-])C(F)(F)F (stereo not shown) [fipronil],Mean ± SEM survival (days) of P. argentipes larvae during exposure to treated feces D-1,[1]; 50 ppm,2.66 ± 0.18 days
same,Mean ± SEM survival (days) of P. argentipes larvae during exposure to treated feces D-5,[1]; 50 ppm,4.03 ± 0.27 days
same,Mean ± SEM survival (days) of P. argentipes larvae during exposure to treated feces D-10,[1]; 50 ppm,4.06 ± 0.29 days
same,Mean ± SEM survival (days) of P. argentipes larvae during exposure to treated feces D-20,[1]; 50 ppm,6.36 ± 0.36 days
same,Mean ± SEM survival (days) of P. argentipes larvae during exposure to treated feces D-1,[1]; 100 ppm,2.23 ± 0.11 days
same,Mean ± SEM survival (days) of P. argentipes larvae during exposure to treated feces D-5,[1]; 100 ppm,3.73 ± 0.23 days
same,Mean ± SEM survival (days) of P. argentipes larvae during exposure to treated feces D-10,[1]; 100 ppm,3.70 ± 0.16 days
same,Mean ± SEM survival (days) of P. argentipes larvae during exposure to treated feces D-20,[1]; 100 ppm,3.82 ± 0.21 days
same,Mean ± SEM survival (days) of P. argentipes larvae during exposure to treated feces D-1,[1]; 250 ppm,3.37 ± 0.20 days
same,Mean ± SEM survival (days) of P. argentipes larvae during exposure to treated feces D-5,[1]; 250 ppm,5.13 ± 0.27 days
same,Mean ± SEM survival (days) of P. argentipes larvae during exposure to treated feces D-10,[1]; 250 ppm,2.28 ± 0.10 days
same,Mean ± SEM survival (days) of P. argentipes larvae during exposure to treated feces D-20,[1]; 250 ppm,2.20 ± 0.10 days
same,Days of exposure to achieve 100% mortality,"[1]; feces 5 days after treatment, 50 ppm",7 days
same,Larval mortality,"[1]; feces 5 days after treatment, 50 ppm, after 2 days of exposure",23%
same,Days of exposure to achieve 100% mortality,"[1]; feces 5 days after treatment, 100 ppm",7 days
same,Larval mortality,"[1]; feces 5 days after treatment, 100 ppm, after 2 days of exposure",22%
same,Days of exposure to achieve 100% mortality,"[1]; feces 5 days after treatment, 250 ppm",8 days
same,Larval mortality,"[1]; feces 5 days after treatment, 250 ppm, after 3 days of exposure",23%
same,Days of exposure to achieve 100% mortality,"[1]; feces 10 days after treatment, 50 ppm",9 days
same,Larval mortality,"[1]; feces 10 days after treatment, 50 ppm, after 2 days of exposure",16%
same,Larval mortality,"[1]; feces 10 days after treatment, 50 ppm, after 6 days of exposure",95%
same,Days of exposure to achieve 100% mortality,"[1]; feces 10 days after treatment, 100 ppm",5 days
same,Larval mortality,"[1]; feces 10 days after treatment, 100 ppm, after 2 days of exposure",6%
same,Days of exposure to achieve 100% mortality,"[1]; feces 10 days after treatment, 250 ppm",4 days
same,Larval mortality,"[1]; feces 10 days after treatment, 250 ppm, after 2 days of exposure",78%
same,Days of exposure to achieve 100% mortality,"[1]; feces 20 days after treatment, 50 ppm",10 days
same,Days of exposure to achieve 100% mortality,"[1]; feces 20 days after treatment, 100 ppm",6 days
same,Larval mortality,"[1]; feces 20 days after treatment, 100 ppm (so in the source), after 3 days of exposure",7%
same,Larval mortality,"[1]; feces 20 days after treatment, 100 ppm, after 2 days of exposure",14%
same,Days of exposure to achieve 100% mortality,"[1]; feces 20 days after treatment, 250 ppm",4 days
same,Larval mortality,"[1]; feces 20 days after treatment, 250 ppm, after 2 days of exposure",85%
same,Knockdown of larvae,[1]; feces collected 20 days after the rodents were treated,Quick knockdown
same,Days of exposure to achieve 100% mortality,"[1]; feces day 1 post-treatment, 50 ppm",5 days
same,Larval mortality,"[1]; feces day 1 post-treatment, 50 ppm, after 1 day of exposure",4%
same,Days of exposure to achieve 100% mortality,"[1]; feces day 1 post-treatment, 100 ppm",4 days
same,Larval mortality,"[1]; feces day 1 post-treatment, 100 ppm, after 1 day of exposure",8%
same,Days of exposure to achieve 100% mortality,"[1]; feces day 1 post-treatment, 250 ppm",6 days
same,Larval mortality,"[1]; feces day 1 post-treatment, 250 ppm, after 2 days of exposure",18%
same,Level of control of adult sand flies as a systemic,"[2]; cattle, oral, without having an impact on milk residues",high levels of control were not attainable
same,Adult sand fly mortality versus dose level,"[2]; days 14 and 21 post-treatment, one hour exposure to cattle, 0.5-4.0 mg/kg",mortality increased with dose level
